Here are results for 4 compounds from PubChem BioAssay (NCI).

Some test systems named below: 786-0 renal; BT-549 breast; HCT-116 colon; HCT-15 colon; MALME-3M melanoma; MDA-MB-231 breast; NCI-H226 lung; NCI-H460 lung; PC-3 prostate; SNB-19 CNS.
Common to all, as to test: growth of human tumour cells (NCI), 48 h

Molecules are shown by their SMILES. “And” between values parts separate entries of the source, which are not always exact repeats. Identical values can stand only once.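 Following 48 hours of exposure in 96-well plates, responses at five concentrations were used to interpolate endpoints linearly. GI50 = concentration required for 50% inhibition of growth. TGI denotes the concentration required for complete inhibition of growth.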

With `COCC(=O)NC/C=C/c1ccc2ncnc(Nc3ccc(Oc4ccc(C)nc4)c(C)c3)c2c1`, the GI50 in the experiment on 786-0 renal was 15.1 µM; in the experiment on BT-549 breast, 6.81 µM; in the experiment on HCT-116 colon it was 13.7 µM; with HCT-15 colon, 9.36 µM; in the experiment on MALME-3M melanoma, 14.4 µM; in the experiment on MDA-MB-231 breast it was 12.7 µM. For the same compound, the GI50 in the experiment on NCI-H226 lung was 14.8 µM; in the experiment on NCI-H460 lung, 4.74 µM; with PC-3 prostate, 15.5 µM; in the experiment with SNB-19 CNS, 18.4 µM. Moreover, the TGI with 786-0 renal stood at 42 µM; with BT-549 breast, 24.9 µM; with HCT-116 colon, 30.9 µM; with HCT-15 colon it was 74.2 µM; in the experiment with MALME-3M melanoma it was 35.4 µM; in the experiment on MDA-MB-231 breast it was 36.1 µM. The TGI is 69.3 µM in the experiment on NCI-H226 lung, 22.3 µM in the experiment on NCI-H460 lung, more than 83.1 µM in the experiment with PC-3 prostate and more than 100 µM with SNB-19 CNS.

For the compound `CCCCCCC(O)C(O)CCC(O)C1CCC(CCCCC(O)CC2=CC(C)OC2=O)O1` (stereo not drawn), the GI50 is 21.9 µM in the experiment on 786-0 renal; 1.28 µM in the experiment with HCT-116 colon; 19.2 µM in the experiment on HCT-15 colon; 18.5 µM in the experiment on MDA-MB-231 breast; 15.2 µM with NCI-H226 lung; 10.5 µM in the experiment with NCI-H460 lung. Besides, the GI50 with PC-3 prostate was 13.1 µM; in the experiment on SNB-19 CNS it was 14.2 µM. Further, the TGI is 52.1 µM with 786-0 renal; 66.8 µM in the experiment with BT-549 breast; 25.3 µM in the experiment on HCT-116 colon; 80.4 µM with HCT-15 colon; 33.8 µM in the experiment with MALME-3M melanoma; 6.4 µM and 46.9 µM in the experiment with MDA-MB-231 breast. Also, the TGI in the experiment with NCI-H226 lung was found to be 34.7 µM; in the experiment on NCI-H460 lung it was 26.9 µM; with PC-3 prostate, 33.1 µM; in the experiment with SNB-19 CNS, 38.8 µM.

In the case of `CCCc1n(Cc2ccc3ccccc3n2)cc[n+]1Cc1ccc2ccccc2c1`, the GI50 in the experiment with 786-0 renal was 2.93 µM; in the experiment on BT-549 breast, 0.23 µM; in the experiment on HCT-116 colon, 1.06 µM; in the experiment with HCT-15 colon it was 12 µM; in the experiment with MALME-3M melanoma, 0.526 µM; in the experiment with MDA-MB-231 breast, 1.05 µM. Further, the GI50 with NCI-H226 lung was 1.2 µM; with NCI-H460 lung, 0.658 µM; in the experiment with PC-3 prostate it was 0.487 µM; in the experiment with SNB-19 CNS, 0.551 µM. Further, the TGI amounted to 10.2 µM with 786-0 renal; 1.43 µM in the experiment with BT-549 breast; 7.05 µM in the experiment with HCT-116 colon; 25.4 µM in the experiment on HCT-15 colon; 2.75 µM with MALME-3M melanoma; 2.86 µM in the experiment with MDA-MB-231 breast. The TGI with NCI-H226 lung was 7.6 µM; with NCI-H460 lung, 10.6 µM; in the experiment with PC-3 prostate it was 4.96 µM; in the experiment on SNB-19 CNS, 11.4 µM.

`COc1cccc(NC(=O)c2ccc(NC3=C(Cl)C(=O)N(Cc4ccccc4)C3=O)cc2)c1`: the GI50 was 18.3 µM in the experiment on 786-0 renal; 13.8 µM in the experiment on BT-549 breast; 15 µM in the experiment with HCT-116 colon; 1.4 µM with HCT-15 colon; 16 µM in the experiment on MALME-3M melanoma; 16.7 µM in the experiment with MDA-MB-231 breast. Also, the GI50 is 14.8 µM with NCI-H226 lung, 12.3 µM in the experiment with NCI-H460 lung, 13.1 µM in the experiment with PC-3 prostate and 19.1 µM in the experiment on SNB-19 CNS. The TGI in the experiment with 786-0 renal came out at 33.9 µM; in the experiment with BT-549 breast it was 33.8 µM; with HCT-116 colon, 28.3 µM; in the experiment with HCT-15 colon, 2.71 µM; in the experiment with MALME-3M melanoma, 42.1 µM; in the experiment on MDA-MB-231 breast it was 36.1 µM. Further, the TGI in the experiment on NCI-H226 lung worked out at 28.8 µM; in the experiment with NCI-H460 lung, 30.4 µM; with PC-3 prostate, 28.5 µM; in the experiment with SNB-19 CNS, 60.1 µM.
